Earlier results in US11318114B2, “Water dispersible mini-tablets comprising Enalapril for treatment of hypertension in a pediatric population and method of preparation thereof” (PHARMATHEN S.A., priority 2014, dated 2022).
Values after ≈ are worked out from the molar mass of the structure shown. Structures can show the parent of a compound that is named as a salt. Where two headings read alike, the source gives them in different places.

Q: Which Solubility (alcohol) does the source give for `CCOC(=O)[C@H](CCc1ccccc1)N[C@@H](C)C(=O)N1CCC[C@H]1C(=O)O` [Enalapril maleate] here?
A: Its Solubility is “soluble”.

Q: What about the Solubility (dimethylformamide) of the same compound?
A: Its Solubility is “freely soluble”.

Q: What about the Solubility (methanol) of the same compound?
A: Its Solubility is “freely soluble”.

Q: What about the Solubility (nonpolar organic solvents) of the same compound?
A: Its Solubility is “practically insoluble”.

Q: And the Solubility (semi polar organic solvents)?
A: Its Solubility is “slightly soluble”.

Q: What about the Solubility (water) of the same compound?
A: Its Solubility is “sparingly soluble”.

Q: Which Solubility in water (water) does the source give for `CCOC(=O)[C@H](CCc1ccccc1)N[C@@H](C)C(=O)N1CCC[C@H]1C(=O)O` [Enalapril, (2S)-1-{[92S0-1-ethoxy-1-oxo-4phenylbutan-2-yl]amino}pyrrolidine-2carboxylic acid] here?
A: Its Solubility in water is 25 mg/mL (≈ 66.4 mM).
